Patent US6977141B2, “Direct adsorption scintillation assay for measuring enzyme activity and assaying biochemical processes” (Vicuron Pharmaceuticals Inc., priority 1998, dated 2005)

Target: MurA (Escherichia coli, UniProt P0A749)
Experiment: Direct adsorption scintillation assay (DASA) of the coupled MurA-MurB-MurC reaction, detection of enzyme inhibition
Assay type: biochemical
Procedure: A reaction mixture was prepared, of which 2 μl contains 38 ng MurA, 34 ng MurB, 34 ng MurC, 40 pmol ATP, 40 pmol UDP-NAcGlc, 40 pmol PEP, 40 pmol NADPH, 4 pmol L-[^3H]-alanine (72.3 Ci/mmol) in 50 mM Tris-HCl, pH 8, 20 mM MgCl2, 20 mM (NH4)2SO4, 1 mM DTT, 0.005% Brij-35. The mixture was incubated at room temperature for one hour. After one hour, 0.25 μl of the reaction mixture was transferred into each well of the poly-D-lysine coated FLASHPLATE™; each well contained 100 μl of 10 mM acetic acid, pH 3.0. The scintillation was counted using the TOPCOUNT™.
Enzyme mixtures (with 60 ng MurA, 8 ng MurB and 60 ng MurC present in each 2 μl sample) were prepared. The enzyme-phosphomycin mixture was pre-incubated at room temperature for 30 minutes. The substrates, as prepared in Example 2, were then added to the mixture to start the reaction. After 30 minutes of reaction at room temperature, 0.25 μl of the reaction mixture was transferred into each well of the poly-D-lysine coated FLASHPLATE™; each well contained 100 μl of 10 mM acetic acid. The scintillation was counted using the TOPCOUNT™.

MurA, sequence (P0A749 whole entry): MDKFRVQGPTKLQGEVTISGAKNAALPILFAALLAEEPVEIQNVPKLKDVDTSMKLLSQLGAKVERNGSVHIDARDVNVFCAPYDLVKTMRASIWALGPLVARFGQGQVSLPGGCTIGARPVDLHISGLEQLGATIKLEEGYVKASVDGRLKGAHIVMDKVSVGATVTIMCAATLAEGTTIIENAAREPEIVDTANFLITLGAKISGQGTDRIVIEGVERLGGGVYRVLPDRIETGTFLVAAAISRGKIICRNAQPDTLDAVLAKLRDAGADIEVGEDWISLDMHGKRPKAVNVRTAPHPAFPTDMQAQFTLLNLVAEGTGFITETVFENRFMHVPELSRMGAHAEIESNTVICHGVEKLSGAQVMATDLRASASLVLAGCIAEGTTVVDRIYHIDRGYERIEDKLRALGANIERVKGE

C[C@@H]1O[C@@H]1P(=O)(O)O [phosphomycin]
scintillation count with increasing inhibitor concentration (FIG. 3) (60 ng MurA, 8 ng MurB, 60 ng MurC per 2 μl, 30 min pre-incubation at room temperature without UDP-NAcGlc, 30 min reaction, poly-D-lysine coated FLASHPLATE): decreased scintillation count
IC50 (pre-incubation carried out in the absence of UDP-NAc-Glu, qualitative statement, no number given): relatively high
